One data set relates to HIV-1. The following applies: single dose; cited from earlier work.
The test system of a further data set is HIV. Conditions: cited from earlier work.
Data set [1] relates to p55 Processing in vVk-1 infected CV-1 Cells. Put plainly: CV-1 Cell Assay: inhibition of p55 processing in vVK-1 infected CV-1 cells (p24 levels). The format is cell-based. Conditions: Cercopithecidae, CV-1, read-out: CV-1 Cell Assay % Inhib. As to the method: Inhibition of p55 Processing in vVk-1 infected CV-1 Cells. CV-1 cells are seeded at 2×10^5 cells per well in 24-well Costar dishes and infected 4 to 6 hours later with vVK-1 at 5 plaque-forming units (PFU) per cell. Each compound is dissolved in Dulbecco's Modified Eagles medium (DMEM) containing 2.5% fetal bovine serum and is added to duplicate wells at the indicated final concentration 2 hours after virus addition. After 24 hours, the culture medium is removed and the monolayer washed with 1 mL of phosphate buffered saline (PBS), and the cells lysed by the addition of 0.1 mL of loading buffer (62.5 mM Tris (hydroxymethyl) aminomethane (Tris), pH 6.8, 2.3% sodium dodecyl sulfate (SDS), 5% β-mercaptoethanol, and 10% glycerol). The cell lysates are collected individually, placed in boiling water for 3 minutes, and then 0.025 mL of each sample is subjected to electrophoresis on 12% SDS-polyacrylamide gels. The proteins are electroblotted onto nitrocellulose and analyzed by protein immunoblotting. The primary antibodies are sheep antibody to p24 (International Enzyme, Inc., Fallbrook, Calif.) and the secondary antibody is alkaline-phosphatase-conjugated rabbit antibody to sheep immunoglobulin G (Kirkegaard & Perry Laboratories, Gaithersburg, Md.). The levels of immunoreactive proteins are quantified by densitometry (Bio-Rad, Model 260) with the accompanying 1-D Analyst Software. Inhibition refers to the mean percent decrease in p24 levels determined from the duplicate drug-treated samples compared to the nondrug-treated controls. […] Val-Ile-Amp (also known as N-[1-(cyclohexylmethyl)-2,3-dihydroxy-5-methyl-4-[[[2-methyl-1-[[(2-pyridinylmethyl)amino]carbonyl]butyl]-amino]carbonyl]hexyl]-α-[[(1-naphthalenyloxy)acetyl]amino]-, [1S-[1R*(R*),2S*,3S*,4S*(1R*,2R*)]]-1H-imidazole-4-propanamide) (which was disclosed in International Publication Number WO 87/05302, published 11 Sep. 1987) was also determined in each experiment.

Data set [2] concerns the target T1, HIV-1 protease (Human immunodeficiency virus type 1 group M subtype B, UniProt P04585). The data set is described as follows: biochemical. The following applies: for IC50: HIV-1 Protease IC50; for inhibition at 0.098 µM: read-out: HIV-1 Protease % Inhib, dose 0.098 uM; for inhibition at 0.78 µM: read-out: HIV-1 Protease % Inhib, dose 0.780 uM; for inhibition at 1.56 µM: read-out: HIV-1 Protease % Inhib, dose 1.560 uM; for inhibition at 12.5 µM: read-out: HIV-1 Protease % Inhib, dose 12.500 uM; for inhibition at 25 µM: read-out: HIV-1 Protease % Inhib, dose 25.000 uM; for inhibition at 50 µM: read-out: HIV-1 Protease % Inhib, dose 50.000 uM; for inhibition at 100 µM: read-out: HIV-1 Protease % Inhib, dose 100.000 uM; for inhibition at 0.37 µM: read-out: HIV-1 Protease % Inhib, dose 0.370 uM; for inhibition at 1.1 µM: read-out: HIV-1 Protease % Inhib, dose 1.100 uM; for inhibition at 30 µM: read-out: HIV-1 Protease % Inhib, dose 30.000 uM. The gist of the method: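 Percent inhibition derived from fluorescent cleavage product separated by filtration after streptavidin-bead capture of intact biotin/FITC substrate. Reaction: enzyme (10 μl, 0.1 μM stock) with substrate (20 μl, 0.2 μM stock) and compound, 1 h at room temperature in dark, pH 5.5 acetate buffer with 1.0 M NaCl and 0.05% NP-40.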

Data set [3] deals with T1, HIV-1 protease. The data set is described as follows: biochemical. The following applies: read-out: HIV-1 FITC KI. The method, boiled down: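 Enzyme (40 nM stock) and substrate (200 μM stock) incubated with inhibitor, 24–48 two-fold serial concentrations, for 90 min at room temperature, then quenched with avidin beads. Nonlinear least-squares analysis gives Ki; a known-Ki inhibitor validates each run.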

In the next data set the test system is HIV-1IIIB. Put plainly: inhibition of retroviral replication in HIV-1IIIB infected human T-cell lines (MT4 and H9). Conditions: e.g. Type of data set: cell-based. As to the method:
Several compounds of the present invention, such as N-[3-[cyclopropyl(5,6,7,8,9,10-hexahydro-4-hydroxy-2-oxo-2H-cycloocta[b]pyran-3-yl)methyl]phenyl]-4-fluorobenzenesulfonamide and 4-cyano-N-[3-[cyclopropyl(5,6,7,8,9,10-hexahydro-4-hydroxy-2-oxo-2H-cycloocta[b]pyran-3-yl)methyl]phenyl]-benzenesulfonamide were tested in known human cell lines, such as human T-cell lines, e.g., MT4 and H9, which were infected with HIV-1IIIB, and certain of these compounds were further tested in peripheral blood mononuclear cells (PBMC), which were infected with HIV-1JRCSF (a clinical isolate).

In a further data set the test system is HIV protease. The following applies: cited from earlier work.

SMILES strings stand for the structures. “And” between values parts separate entries of the source, which are not always exact repeats. Equal entries are not always repeated. Square brackets hold non-standard residues; d marks the D form. Peptide text beside a SMILES is read from it. * marks the point of attachment. Sta = CC(C)C[C@H](N)[C@@H](O)CC(=O)O; Isovaleryl = CC(C)CC(=O)* Where only a bound is given, the exact number is not on record here.

Regarding `O=c1cc(O)c2ccccc2o1` [4-hydroxy-coumarin], the “effect on HIV-1 replication and viral transmission” value in the data set with HIV-1 is recorded as “inhibitory effect”.

As to `Cc1cn([C@H]2C[C@H](N=[N+]=[N-])[C@@H](CO)O2)c(=O)[nH]c1=O` [AZT, 3'-azido-3'-deoxy-thymidine], the “clinical effect in HIV infection/AIDS” value in the data set with HIV (humans) was “decrease the mortality and frequency of opportunistic infections associated with AIDS”.

A word on the IC50: it is the midpoint of a concentration-inhibition curve. Low readings indicate higher potency, high ones lower potency. Take `CCCC(c1ccccc1)c1c(O)c2ccccc2oc1=O` (centres unmarked) [Example 10, 4-Hydroxy-3-(1-phenylbutyl)-coumarin]: in data set [1], the inhibition at 100 µM worked out at 0% and the inhibition at 300 µM came out at 57%. Besides, at HIV-1 protease [2], half-maximal inhibition (IC50) was put at 1710 nM, the inhibition at 0.098 µM is less than 10%, the inhibition at 0.78 µM was 33.2% and the inhibition at 1.56 µM came out at 53.6%. Moreover, on HIV-1 protease [2], the inhibition at 12.5 µM was 91.5%, the inhibition at 25 µM stood at 88%, the inhibition at 50 µM turned out to be 102% and the inhibition at 100 µM came out at 109%. For the same molecule, the inhibition at 0.196 µM at HIV-1 protease [2] (read-out: HIV-1 Protease % Inhib, dose 0.196 uM) was less than 10%.

In the case of `CCCCC(c1ccccc1)c1c(O)c2ccccc2oc1=O` (centres unmarked) [Example 11, 4-Hydroxy-3-(1-phenylpentyl)-coumarin], in data set [1], the inhibition at 100 µM was determined as 64% and the inhibition at 300 µM worked out at 78%. Also, at HIV-1 protease [2], half-maximal inhibition (IC50) required 1890 nM, the inhibition at 0.098 µM is less than 10%, the inhibition at 0.78 µM turned out to be 27.1% and the inhibition at 1.56 µM amounted to 58.1%. Besides, at HIV-1 protease [2], the inhibition at 12.5 µM is 82%, the inhibition at 25 µM was 95.8%, the inhibition at 50 µM turned out to be 90.7% and the inhibition at 100 µM was determined as 105%. Also, the inhibition at 0.195 µM on HIV-1 protease [2] (read-out: HIV-1 Protease % Inhib, dose 0.195 uM) was less than 10%. The inhibition at 0.39 µM at HIV-1 protease [2] (read-out: HIV-1 Protease % Inhib, dose 0.390 uM) is 19.2%. The inhibition at 3.13 µM at HIV-1 protease [2] (read-out: HIV-1 Protease % Inhib, dose 3.130 uM) came out at 63.1%. Besides, the inhibition at 6.25 µM at HIV-1 protease [2] (read-out: HIV-1 Protease % Inhib, dose 6.250 uM) turned out to be 70.4%. Besides, the inhibition at 200 µM at HIV-1 protease [2] (read-out: HIV-1 Protease % Inhib, dose 200.000 uM) worked out at 107%.

Usually Ki stands for a measure of affinity in units of concentration, obtained from inhibition or displacement. For the molecule `N#Cc1ccc(S(=O)(=O)Nc2cccc(C(c3c(O)c4c(oc3=O)CCCCCC4)C3CC3)c2)cc1` (centres unmarked) [Example 262, 4-Cyano-N-[3-[cyclopropyl(5,6,7,8,9,10-hexahydro-4-hydroxy-2-oxo-2H-cycloocta[b]pyran-3-yl)methyl]phenyl]-benzenesulfonamide], the Ki on HIV-1 protease [3] is 1.4 nM and 0.44 nM and 1.01 nM and 0.6 nM. In addition, the “inhibition of retroviral replication” value with HIV-1IIIB is recorded as “found to inhibit retrovital replication”. Moreover, the “HIV-1 Protease % Inhib” value was 83.32% on HIV-1 protease [2] (dose 0.123 uM), 121.87% on HIV-1 protease [2] (dose 3.300 uM) and 119.5% on HIV-1 protease [2] (dose 10.000 uM). Further, the inhibition at 0.37 µM at HIV-1 protease [2] stood at 103%. Further, the inhibition at 1.1 µM at HIV-1 protease [2] was 113%. Also, on HIV-1 protease [2], the inhibition at 30 µM is 115%.

In the case of `O=c1oc2c(c(O)c1C(c1cccc(NS(=O)(=O)c3ccc(F)cc3)c1)C1CC1)CCCCCC2` (centres unmarked) [Example 268, N-[3-[Cyclopropyl(5,6,7,8,9,10-hexahydro-4-hydroxy-2-oxo-2H-cycloocta[b]pyran-3-yl)methyl]phenyl]-4-fluoro-benzenesulfonamide], the “inhibition of retroviral replication” value with HIV-1IIIB is listed as “found to inhibit retrovital replication”. The inhibition at 0.123 µM at HIV-1 protease [2] (read-out: HIV-1 Protease % Inhib, dose 0.123 uM) is 71.2%. In addition, at HIV-1 protease [2], the inhibition at 0.37 µM was 88%, the inhibition at 1.1 µM is 96.2% and the inhibition at 30 µM was 101%. The inhibition at 3.3 µM on HIV-1 protease [2] (read-out: HIV-1 Protease % Inhib, dose 3.300 uM) stood at 97.6%. On HIV-1 protease [2] (read-out: HIV-1 Protease % Inhib, dose 10.000 uM), the inhibition at 10 µM was 101%.

Regarding `CC(C)CC(=O)N[C@H](C(=O)N[C@H](C(=O)N[C@@H](CC(C)C)[C@@H](O)CC(=O)N[C@@H](C)C(=O)N[C@@H](CC(C)C)[C@@H](O)CC(=O)O)C(C)C)C(C)C` [Pepstatin A] (Isovaleryl-VV[Sta]A[Sta]-OH), in the data set on HIV protease, the HIV protease inhibition entry is “inhibitor of HIV-I protease”.

As to `Nc1ccn([C@H]2CC[C@@H](CO)O2)c(=O)n1` [ddC], the limiting toxicity entry with HIV (humans) is given as “peripheral neuropathy which is reversible at low doses”.

For the molecule `O=c1[nH]cnc2c1ncn2[C@H]1CC[C@@H](CO)O1` [ddI], the effect on liver entry in the data set with HIV (human, in vivo) was “stimulate hepatic glycolysis leading to irreversible liver damage”. Besides, the limiting toxicity result with HIV (humans) was “peripheral neuropathy and pancreatitis”.

For the molecule `O=c1ccc2ccc(O)cc2o1` [umbelliferone], in the data set with HIV-1, the “effect on HIV-1 replication and viral transmission” value was “inhibitory effect”.

As for `CC(=O)CC(c1ccccc1)c1c(O)c2ccccc2oc1=O` (stereo not drawn) [warfarin, 3-α-phenyl-β-acetylethyl-4-hydroxycoumarin], the “effect on HIV-1 replication and viral transmission” value in the data set on HIV-1 is listed as “inhibitory effect”. Also, in the data set on HIV protease, the HIV protease inhibition entry is “displayed HIV protease inhibition”.

The values above are taken from patent US5686486A, “4-hydroxy-benzopyran-2-ones and 4-hydroxy-cycloalkyl[b]pyran-2-ones useful to treat retroviral infections” (priority 1995, dated 1997).
